# Legend:
# Type in all cases: functional
# [1] = Antioxidant activity assessed as inhibition of copper-mediated LDL oxidation by FPLC method relative to probucol
# [2] = Antioxidant activity assessed as inhibition of copper-mediated LDL oxidation at 3 x 10 '-6 M by FPLC method; details: TDE = time-dependent effect
# [3] = Antioxidant activity against copper-mediated LDL oxidation assessed as oxidized LDL type D level at 3 x 10 '-6 M by FPLC method
# [4] = Antioxidant activity against copper-mediated LDL oxidation assessed as oxidized LDL type C level at 3 x 10 '-6 M by FPLC method
# Oryctolagus cuniculus [5] = assay: Antioxidant activity against copper-induced LDL oxidation in Watanabe Oryctolagus cuniculus (rabbit) assessed as time duration of protection at 50 mg/kg, po administered as single dose
# [6] = Antioxidant activity against copper-mediated LDL oxidation assessed as native LDL type B level at 3 x 10 '-6 M by FPLC method
# [7] = Antioxidant activity assessed as inhibition of copper-mediated LDL oxidation by FPLC method
# [8] = Antioxidant activity against copper-mediated LDL oxidation assessed as oxidized LDL type E level at 3 x 10 '-5 M by FPLC method
# Oryctolagus cuniculus [9] = assay: Antioxidant activity against copper-induced LDL oxidation in Watanabe Oryctolagus cuniculus (rabbit) assessed as time duration of protection at 250 mg/kg, po administered as single dose
# [10] = Antioxidant activity against copper-mediated LDL oxidation assessed as oxidized LDL type D level at 3 x 10 '-5 M by FPLC method
IC50 [7] [µM],SMILES,Ratio [1],Activity [2],Activity [3] [%],Activity [4] [%],Time (Oryctolagus cuniculus [5]) [h],Activity [6] [%],Activity [7],Activity [8] [%],Time (Oryctolagus cuniculus [9]) [h],Activity [10] [%]
3,CC1/C(=C\c2cc(C(C)(C)C)c(O)c(C(C)(C)C)c2)C(=O)c2cc3oc(=O)n(C)c3cc21 (configuration not stated),10,tde,8,8,48,84,Dose-dependent effect,–,–,–
30,CC(C)(Sc1cc(C(C)(C)C)c(O)c(C(C)(C)C)c1)Sc1cc(C(C)(C)C)c(O)c(C(C)(C)C)c1 [PROBUCOL],–,–,–,–,–,–,–,52,48,48

# From ChEMBL document CHEMBL3046910, “Synthesis and pharmacological evaluation of antioxidant chalcone derivatives of 2(3H)-benzoxazolones” (Med Chem Res, 2009)
